{"source": "patent EP0330052B1", "about": "“Use of benzimidazoles for preparing a medicine with an anti-ischemial activity on the heart, and combinations with betablockers or bradycardics” (Dr. Karl Thomae GmbH, priority 1988, dated 1989)", "key": {"Kaninchen": {"tested_on": "Kaninchen", "assay": "Influence on infarct size in an ischaemia/reperfusion model (60 min coronary ligation, 30 min reperfusion)", "format": "in vivo", "details": "i.v. 10 min before occlusion", "method": "1. Beeinflussung der Infarktgröße an einem Ischämie/Reperfusionsmodell\nKaninchen (Russen beiderlei Geschlechts, Körpergewicht 2-2,5 kg) werden mit einem Bolus (40-60 mg/kg i.p.) und nachfolgender Dauerinfusion (10 |g/kg/h) Pentobarbital narkotisiert. Die Körpertemperatur wird bei 38°C gehalten. Nach endotrachealer Intubation werden die Tiere druckkonstant mit einer Mischung aus 50 % O₂ und 50 % N₂ beatmet. Die Kontrolle der Blutgase und des Blut pH erfolgt mit einem Blutgasanalyzer (ABL-2, Radiometer). Zur Messung des linksventrikulären Druckes wurde ein Druckwandler über die A-carotis in die linke Herzkammer geschoben. Der Aortendruck wird über einen via A. femoralis eingeführten Katheter erfaßt. Nach Eröffnung des Thorax im 5. linken Interkostalraum wird die linke absteigende Koronararterie für 60 Minuten ligiert und danach die Koronararterie wieder eröffnet. Nach 30minütiger Reperfusion wird die Arterie an derselben Stelle wieder verschlossen und das normal perfundierte Myokard mit Patentblau (in den linken Vorhof injiziert) angefärbt. Das Herz wird danach in drei Scheiben geschnitten und das bisher ungefärbte, vorher ischämische Gewebe, wird in einem Puffer mit Triphenyltetrazolium angefärbt. Überlebende Herzmuskelreale färben sich ziegelrot, während totes Gewebe bleich erscheint. […]"}, "Hunde": {"tested_on": "Hunde", "assay": "Effect on collateral-dependent residual myocardial perfusion after repeated complete occlusion of the circumflex branch of the left coronary artery (radioactive microspheres)", "format": "in vivo", "details": "relative to third occlusion", "method": "2. Wirkung auf die kollateralabhängige Restperfusion des Myokards nach wiederholter vollständiger Okklusion des umschlingenden Astes der linken Koronararterie\nHunde (mischrassig, beiderlei Geschlechts, 20-30 kg Körpergewicht) werden mit Morphin (1 mg/kg s.c.) prämediziert und mit Pentobarbital (i.v. 20 mg/kg Bolus gefolgt von einer Dauerinfusion von 8 mg/kg) narkotisiert. Die Körpertemperatur wird mit einem Heizkissen bei 38°C gehalten. Nach endotrachealer Intubation werden die Tiere mit einem Gemisch von 25 % O₂ und 75 % N₂O beatmet. Der linksventrikuläre Druck wird mit einem Mikrodruckwandler gemessen, während der Aortendruck über einen via A. femoralis vorgeschobenen Katheter erfaßt wird. Nach Thoraxeröffnung im linken 5. Interkostalraum wird der Ramus circumflexus der linken Koronararterie freipärpariert und der Meßkopf eines elektromagnetischen Flowmeters darumgelegt. Zur Injektion von radioaktiven Mikrosphären (regionale Perfusionsmessung) wird der linke Vorhof kanüliert. Die Referenzprobe wird über die linke A. femoralis 2 Minuten lang bei einem Fluß von 6 ml/Minute gezogen. Die Registrierung der hämodynamischen Daten erfolgt auf einem IFD Polygraphen.\nNach einer 30minütigen Äquilibrierungsphase wird der Ramus circumflexus 6 mal im Abstand von jeweils 30 Minuten für 4 Minuten verschlossen. Dabei wird während der 4. Minute eine regionale Perfusionsbestimmung durchgeführt. Die Perfusion des Versorgungsbereiches des Ramus circumflexus ist abhängig von koronaren Kollateralgefäßen. Für die Beurteilung der Kollateralperfusion werden die besonders ischämiegefährdeten subendocardialen Herzmuskelschichten herangezogen. Als Bezugswert vor Substanzgabe dient der jeweilige Flußwert der dritten Okklusion."}, "[1]": {"assay": "Acute toxicity (LD50), mouse", "details": "in vivo, Maus"}, "[2]": {"assay": "Acute toxicity (LD50), rat", "details": "in vivo, iv, Ratte, read-out: LD₅₀ i.v."}, "[3]": {"details": "po, read-out: LD₅₀ p.o. (converted)"}}}
{"smiles": "CC(C)NCC(O)COc1ccc(CC(N)=O)cc1", "note": "(stereo not shown) [Atenolol, reference compound]", "values": [{"measurement": "% des ischämischen Myokards infarziert", "setting": "Kaninchen; Dosis 0,3 mg/kg", "value": 63, "unit": "%"}]}
{"smiles": "Cc1nc2ccc(C3=NNC(=O)CC3C)cc2[nH]1", "note": "(stereo not shown) [C, 2-Methyl-5-(5-methyl-3-oxo-4,5-dihydro-2H-6-pyridazinyl)-benzimidazol]", "values": [{"measurement": "% Änderung des Kollateralflusses pro Herzschlag im subendocardialen ischämischen Myocard", "setting": "Hunde; Dosis i.v. 10 µg/kg", "value": "+101%"}, {"measurement": "% Änderung des Kollateralflusses pro Herzschlag im subendocardialen ischämischen Myocard", "setting": "Hunde; Dosis i.v. 30 µg/kg", "value": "+178%"}]}
{"smiles": "COc1ccc(CCN2CCCC(CN3CCc4cc(OC)c(OC)cc4CC3=O)C2)cc1OC", "note": "(stereo not shown) [D, 3-[(N-(2-(3,4-Dimethoxyphenyl)-ethyl)-piperidin-3-yl)-methyl]-7,8-dimethoxy-1,3,4,5-tetrahydro-2H-3-benzazepin-2-on]", "values": [{"measurement": "LD50", "setting": "[1]; iv, read-out: LD₅₀ i.v.", "value": 50, "unit": "mg/kg"}, {"measurement": "LD50", "setting": "[1]; [3]", "value": 720, "unit": "mg/kg"}]}
{"smiles": "COc1ccc(-c2nc3ccc(C4=NNC(=O)CC4C)cc3[nH]2)cc1", "note": "(stereo not shown) [Verbindung A, 2-(4-Methoxyphenyl)-5-(5-methyl-3-oxo-4,5-dihydro-2H-6-pyridazinyl)-benzimidazol]", "values": [{"measurement": "LD50", "setting": "[1]; [3]", "value": 600, "unit": "mg/kg"}, {"measurement": "% des ischämischen Myokards infarziert", "setting": "Kaninchen; Dosis 0,5 mg/kg", "value": 34, "unit": "%"}, {"measurement": "LD50", "setting": "[2]", "value": 72, "unit": "mg/kg"}, {"measurement": "% Änderung des Kollateralflusses pro Herzschlag im subendocardialen ischämischen Myocard", "setting": "Hunde; Dosis i.v. 30 µg/kg", "value": "+100%"}]}
{"smiles": "CC1CC(=O)NN=C1c1ccc2nc(-c3ccc(O)cc3)[nH]c2c1", "note": "(stereo not shown) [Verbindung B, 2-(4-Hydroxyphenyl)-5-(5-methyl-3-oxo-4,5-dihydro-2H-6-pyridazinyl)-benzimidazol]", "values": [{"measurement": "LD50", "setting": "[2]", "value": "> 100", "unit": "mg/kg"}, {"measurement": "% Änderung des Kollateralflusses pro Herzschlag im subendocardialen ischämischen Myocard", "setting": "Hunde; Dosis i.v. 95 µg/kg", "value": "+182%"}]}
{"smiles": "COc1ccc(CCN(C)CCCN2CCc3cc(OC)c(OC)cc3CC2=O)cc1OC", "note": "[Verbindung E, 1-(7,8-Dimethoxy-1,3,4,5-tetrahydro-2H-3-benzazepin-2-on-3-yl)-3-[N-methyl-N-(2-(3,4-dimethoxyphenyl)-ethyl)-amino]propan]", "values": [{"measurement": "LD50", "setting": "[1]; iv, read-out: LD₅₀ i.v.", "value": 89, "unit": "mg/kg"}, {"measurement": "LD50", "setting": "[1]; [3]", "value": 1350, "unit": "mg/kg"}]}
